From ChEMBL document CHEMBL1201862, “PubChem BioAssay data set” (2004)
Activity calls are given as the source filed them.

Legend:
[1] = target: T1, Apoptotic protease-activating factor 1 (Homo sapiens, UniProt O14727); experiment: SAR analysis of small molecule Activators of Apaf-1 in a Fluorescent assay.; format: functional; details: read-out: EC50_Mean;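 further: caspase-3 cleavage of fluorogenic Rh110 DEVD substrate downstream of apoptosome activation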
T1 sequence (O14727 whole entry): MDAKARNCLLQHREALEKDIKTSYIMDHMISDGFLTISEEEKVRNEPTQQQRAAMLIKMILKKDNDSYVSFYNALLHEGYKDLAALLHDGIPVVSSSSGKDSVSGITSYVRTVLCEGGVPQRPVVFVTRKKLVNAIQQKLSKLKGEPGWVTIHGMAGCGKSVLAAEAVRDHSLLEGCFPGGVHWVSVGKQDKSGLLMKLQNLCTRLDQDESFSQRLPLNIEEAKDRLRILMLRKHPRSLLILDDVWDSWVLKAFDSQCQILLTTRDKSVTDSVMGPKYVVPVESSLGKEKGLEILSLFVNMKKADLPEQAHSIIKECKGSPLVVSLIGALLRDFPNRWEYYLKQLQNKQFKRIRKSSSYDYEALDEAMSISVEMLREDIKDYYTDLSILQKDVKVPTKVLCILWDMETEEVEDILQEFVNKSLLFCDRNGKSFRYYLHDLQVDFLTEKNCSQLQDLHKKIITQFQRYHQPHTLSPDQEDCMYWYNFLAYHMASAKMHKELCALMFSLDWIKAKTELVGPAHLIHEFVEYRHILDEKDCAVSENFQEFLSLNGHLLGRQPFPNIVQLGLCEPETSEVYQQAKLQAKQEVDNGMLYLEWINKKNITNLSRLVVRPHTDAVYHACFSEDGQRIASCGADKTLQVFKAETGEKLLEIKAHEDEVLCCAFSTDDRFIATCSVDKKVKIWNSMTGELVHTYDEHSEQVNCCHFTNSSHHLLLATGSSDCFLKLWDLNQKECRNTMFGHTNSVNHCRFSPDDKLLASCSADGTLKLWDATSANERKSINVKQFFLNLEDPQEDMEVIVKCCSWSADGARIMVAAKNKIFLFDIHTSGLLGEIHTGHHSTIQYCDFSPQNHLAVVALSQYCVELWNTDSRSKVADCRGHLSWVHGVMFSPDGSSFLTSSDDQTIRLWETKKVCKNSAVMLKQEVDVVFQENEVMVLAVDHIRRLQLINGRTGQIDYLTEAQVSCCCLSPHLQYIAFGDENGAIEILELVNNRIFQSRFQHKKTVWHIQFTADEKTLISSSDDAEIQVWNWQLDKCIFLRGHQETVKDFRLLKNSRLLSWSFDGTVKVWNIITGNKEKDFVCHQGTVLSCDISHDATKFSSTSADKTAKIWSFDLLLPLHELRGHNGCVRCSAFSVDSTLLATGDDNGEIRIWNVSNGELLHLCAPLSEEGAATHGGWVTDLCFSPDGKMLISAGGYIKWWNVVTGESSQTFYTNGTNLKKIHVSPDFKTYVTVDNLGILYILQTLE

[2] = target: Serine/threonine-protein kinase pim-1 (Homo sapiens, UniProt P11309); format: functional
[3] = target: Receptor-type tyrosine-protein kinase FLT3 (Homo sapiens, UniProt P36888); format: functional;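 further: FLT3 was tested as one member of a kinome-wide kinase panel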
[4] = target: T2, High affinity choline transporter 1 (Homo sapiens, UniProt Q9GZV3); experiment: CHT inhibitors, dose response, cell-based, 10-point CRC, membrane potential dye (AID 588401); format: functional;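 further: membrane potential dye fluorescence of choline-evoked depolarization via CHT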
T2 sequence (Q9GZV3 whole entry): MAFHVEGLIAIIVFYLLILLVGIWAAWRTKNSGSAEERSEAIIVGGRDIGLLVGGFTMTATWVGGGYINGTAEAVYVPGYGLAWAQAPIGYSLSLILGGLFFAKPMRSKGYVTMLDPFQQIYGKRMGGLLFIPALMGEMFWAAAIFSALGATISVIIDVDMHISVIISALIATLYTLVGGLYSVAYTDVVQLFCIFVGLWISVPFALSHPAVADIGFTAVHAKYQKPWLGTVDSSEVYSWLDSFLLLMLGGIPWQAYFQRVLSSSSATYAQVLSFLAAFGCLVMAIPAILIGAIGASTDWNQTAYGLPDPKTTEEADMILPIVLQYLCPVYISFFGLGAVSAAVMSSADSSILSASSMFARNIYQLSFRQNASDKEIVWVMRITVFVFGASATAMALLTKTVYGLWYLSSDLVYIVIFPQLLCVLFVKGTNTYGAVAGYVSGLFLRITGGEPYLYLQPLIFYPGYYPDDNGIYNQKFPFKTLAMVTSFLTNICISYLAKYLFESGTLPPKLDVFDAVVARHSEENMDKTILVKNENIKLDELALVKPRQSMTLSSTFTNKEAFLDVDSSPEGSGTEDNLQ

[5] = target: T2, High affinity choline transporter 1; experiment: CHT inhibitors, dose response, cell-based, 5-point CRC, membrane potential dye (AID 504840); format: functional
[6] = target: Adenosylmethionine-8-amino-7-oxononanoate aminotransferase (Mycobacterium tuberculosis, UniProt P9WQ81); experiment: Mycobacterium tuberculosis BioA enzyme inhibitor Measured in Biochemical System Using Plate Reader - 2163-02_Inhibitor_Dose_CherryPick_Activity.; format: functional, Mycobacterium tuberculosis UT205
INS1 = experiment: inhibitors of cytokine-induced nitrite release, dose response, cell-based, Griess absorbance, INS-1E, dry powder, set 2 (AID 488868); format: functional; details: Rattus norvegicus
[7] = inhibitors of cytokine-induced nitrite release, dose response, cell-based, Griess absorbance, INS-1E, dry powder, set 3 (AID 488870); format: functional; details: Rattus norvegicus
Cytochrome P450 2C9 = Cytochrome P450 2C9 (Homo sapiens, UniProt P11712)
Cytochrome P450 3A4 = Cytochrome P450 3A4 (Homo sapiens, UniProt P08684);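 further: CYP3A4 tested as one member of a cytochrome P450 panel screen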
Melanocortin receptor 4 [8] = target: T3, Melanocortin receptor 4 (Homo sapiens, UniProt P32245); format: functional, cell-based;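 further: Cell-based assay with luminescence read-out, confirmatory dose-response testing for agonist activity of biased ligands at MC4R; human U2OS cells with tagged receptor and beta-arrestin; potency of agonists that increase receptor coupling to beta-arrestin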
Cytochrome P450 2D6 = Cytochrome P450 2D6 (Homo sapiens, UniProt P10635);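 further: CYP2D6 member of a cytochrome P450 panel assay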
Estrogen receptor beta = Estrogen receptor beta (Homo sapiens, UniProt Q92731);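 further: recombinant ER-beta bound to coactivator SRC1 peptide in presence of estradiol agonist; inhibitors block coactivator peptide binding and lower the FRET signal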
Protein Wnt-3a = Protein Wnt-3a (Mus musculus, UniProt P27467); experiment: Wnt3a-driven reporter signaling inhibition, dose response, selectivity assay for Gli-SUFU antagonist project, Wnt-LIGHT cells, luminescence (AID 651570); format: functional; details: read-out: IC50_Mean;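 further: Wnt-LIGHT reporter cells stimulated with conditioned medium from Wnt3a-producing cells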
Coagulation factor XII = target: T4, Coagulation factor XII (Homo sapiens, UniProt P00748); format: functional;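 further: activated factor XIIa alpha cleaving a fluorogenic AMC peptide substrate; inhibitor potency from loss of enzyme activity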
T4 sequence (P00748 whole entry): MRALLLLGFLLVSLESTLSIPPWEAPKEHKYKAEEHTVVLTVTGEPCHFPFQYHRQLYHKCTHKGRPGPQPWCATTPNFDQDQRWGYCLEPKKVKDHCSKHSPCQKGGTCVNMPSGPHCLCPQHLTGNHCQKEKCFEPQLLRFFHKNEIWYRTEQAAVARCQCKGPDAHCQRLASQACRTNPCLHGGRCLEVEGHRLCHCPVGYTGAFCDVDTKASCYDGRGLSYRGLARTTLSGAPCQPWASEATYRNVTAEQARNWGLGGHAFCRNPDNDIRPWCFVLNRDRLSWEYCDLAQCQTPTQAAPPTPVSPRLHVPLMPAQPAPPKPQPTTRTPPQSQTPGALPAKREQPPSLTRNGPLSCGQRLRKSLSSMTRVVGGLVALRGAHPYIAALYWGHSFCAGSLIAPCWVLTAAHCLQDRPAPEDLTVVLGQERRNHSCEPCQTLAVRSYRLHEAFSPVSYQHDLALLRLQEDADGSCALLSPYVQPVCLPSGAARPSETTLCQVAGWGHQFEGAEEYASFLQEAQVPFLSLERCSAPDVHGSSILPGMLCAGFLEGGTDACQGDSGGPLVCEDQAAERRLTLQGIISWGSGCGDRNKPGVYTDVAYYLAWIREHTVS

Troponin, cardiac muscle = Troponin, cardiac muscle (Homo sapiens, UniProt P19429+P45379+P63316); experiment: Fluorescence-based biochemical high throughput dose response assay for activators of the calcium sensitivity of cardiac Regulated Thin Filaments (RTF). [Related pubchem assays (depositor defined):AID493008, AID493018, AID504382, AID504383]; format: protein-complex assay
Beta-lactamase [9] = target: Beta-lactamase (Salmonella choleraesuis (strain SC-B67), UniProt Q5J463)
Beta-lactamase [10] = target: Beta-lactamase (Pseudomonas aeruginosa, UniProt Q79MP6);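 further: biochemical dose-response test of metallo-beta-lactamase enzyme inhibition, read out by epi-absorbance; purified recombinant IMP-1 metallo-beta-lactamase with nitrocefin as substrate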
BJ [11] = experiment: cytotoxicity toward BJ-TERT fibroblasts, dose response, cell-based, RAS-independent, luminescence (AID 1933); format: functional; details: Homo sapiens
BJ [12] = experiment: cytotoxicity toward BJ-TERT-LT-ST fibroblasts, dose response, cell-based, RAS-independent, luminescence (AID 1935); format: functional; details: Homo sapiens;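 further: BJ fibroblasts immortalized with TERT plus LT and ST oncogenes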
[13] = cytotoxicity toward DRD oncogenic fibroblasts, dose response, cell-based, non-viral oncogenic, luminescence (AID 1934); format: functional; details: Homo sapiens
Beta Lactamase = Beta Lactamase (Pseudomonas aeruginosa, UniProt Q932Y6);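 further: confirmatory high-throughput screen measuring VIM-2 metallo-beta-lactamase inhibition by epi-absorbance in dose response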
BJ [14] = experiment: cells; format: functional, cell-based; details: Homo sapiens
[15] = target: T5, Endoribonuclease toxin MazF (Escherichia coli K-12, UniProt P0AE70); experiment: fluorescent RNA oligo signal without MazF, dose response, counter-screen for MazEF activator project, biochemical, fluorescence, single-stranded RNase substrate (AID 588502); format: functional
T5 sequence (P0AE70 whole entry): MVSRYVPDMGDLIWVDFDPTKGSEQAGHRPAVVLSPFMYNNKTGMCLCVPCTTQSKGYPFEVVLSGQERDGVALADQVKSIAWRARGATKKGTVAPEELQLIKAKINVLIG

[16] = target: T5, Endoribonuclease toxin MazF; experiment: MazF toxin RNase activators, dose response, biochemical, fluorescence, single-stranded RNA substrate, uHTS hits (AID 588481); format: functional
Melanocortin receptor 4 [17] = target: T3, Melanocortin receptor 4; experiment: MC4R antagonist potency on cAMP, dose response, cell-based, TR-FRET, biased antagonists (AID 602298); format: functional;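 further: antagonist potency against agonist-stimulated cAMP production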
[18] = nonselective inhibitors of cellular cAMP signaling, dose response, counter-screen for MC4R biased antagonist project, cell-based, TR-FRET cAMP detection (AID 602305); format: functional;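 further: U2OS cells stimulated with forskolin near its EC80 as the cAMP inducer; potency is for inhibition of forskolin-stimulated cAMP signaling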
Aurora kinase A = Aurora kinase A (Homo sapiens, UniProt O14965); format: functional;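 further: value from the Navigating the Kinome kinase panel profiling, panel entry STK6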
Aurora kinase B = Aurora kinase B (Homo sapiens, UniProt Q96GD4); format: functional
[19] = target: T6, Mitochondrial peptide methionine sulfoxide reductase (Bos taurus, UniProt P54149); format: functional;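 further: absorbance read-out, biochemical high-throughput dose-response screen for MsrA inhibitors, confirmatory; recombinant bovine MsrA coupled to E. coli TrxB with NADPH and selenocystamine; potency is for inhibitors of MsrA activity on DMSO substrate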
T6 sequence (P54149 whole entry): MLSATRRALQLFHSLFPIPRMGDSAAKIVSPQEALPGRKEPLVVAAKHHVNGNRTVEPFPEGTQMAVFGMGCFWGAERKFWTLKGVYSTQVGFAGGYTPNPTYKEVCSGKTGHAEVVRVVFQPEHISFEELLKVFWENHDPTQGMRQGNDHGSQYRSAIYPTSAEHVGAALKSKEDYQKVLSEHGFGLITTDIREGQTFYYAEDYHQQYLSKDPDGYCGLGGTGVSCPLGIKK

[20] = target: Aryl hydrocarbon receptor (Homo sapiens, UniProt P35869); details: Potency;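 further: confirmatory quantitative high-throughput screen measuring activation of the AhR signaling pathway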
[21] = P. falciparum Dd2 growth inhibitors, dose response, SYBR Green, cherry-picked samples (AID 1159567); format: functional, cell-based

T3 sequence (P32245 whole entry): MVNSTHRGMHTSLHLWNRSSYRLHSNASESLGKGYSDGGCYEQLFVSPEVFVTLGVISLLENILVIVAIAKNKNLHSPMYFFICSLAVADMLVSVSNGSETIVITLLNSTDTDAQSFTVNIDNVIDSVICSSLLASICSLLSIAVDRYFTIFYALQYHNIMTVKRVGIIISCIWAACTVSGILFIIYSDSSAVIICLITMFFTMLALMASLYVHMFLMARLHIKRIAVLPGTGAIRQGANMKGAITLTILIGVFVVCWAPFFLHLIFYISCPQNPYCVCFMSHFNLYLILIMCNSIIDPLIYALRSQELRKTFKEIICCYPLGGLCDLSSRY
Sequence of Adenosylmethionine-8-amino-7-oxononanoate aminotransferase (P9WQ81 whole entry): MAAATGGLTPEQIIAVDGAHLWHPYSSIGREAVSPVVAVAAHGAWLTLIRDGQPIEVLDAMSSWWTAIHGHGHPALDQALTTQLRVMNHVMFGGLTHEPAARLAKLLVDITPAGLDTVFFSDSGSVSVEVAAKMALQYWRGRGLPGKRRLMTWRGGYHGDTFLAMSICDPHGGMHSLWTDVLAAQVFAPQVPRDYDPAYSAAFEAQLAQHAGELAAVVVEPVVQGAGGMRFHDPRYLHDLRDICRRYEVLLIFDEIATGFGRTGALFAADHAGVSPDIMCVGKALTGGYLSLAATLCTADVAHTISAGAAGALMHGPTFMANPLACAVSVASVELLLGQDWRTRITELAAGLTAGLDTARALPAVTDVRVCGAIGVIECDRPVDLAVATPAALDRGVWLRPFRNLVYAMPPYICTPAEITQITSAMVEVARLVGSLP
Sequence of Protein Wnt-3a (P27467 whole entry): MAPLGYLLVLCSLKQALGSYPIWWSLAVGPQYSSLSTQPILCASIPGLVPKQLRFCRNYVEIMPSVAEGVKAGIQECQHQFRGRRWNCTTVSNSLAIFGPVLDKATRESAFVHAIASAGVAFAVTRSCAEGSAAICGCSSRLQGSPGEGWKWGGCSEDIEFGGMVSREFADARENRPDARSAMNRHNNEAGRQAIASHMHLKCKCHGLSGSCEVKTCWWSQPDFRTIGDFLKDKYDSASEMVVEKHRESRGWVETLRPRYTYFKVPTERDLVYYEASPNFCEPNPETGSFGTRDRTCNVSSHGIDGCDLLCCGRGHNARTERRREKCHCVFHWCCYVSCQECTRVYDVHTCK
Sequence of Beta-lactamase (Salmonella choleraesuis (strain SC-B67), UniProt Q5J463) (Q5J463 whole entry): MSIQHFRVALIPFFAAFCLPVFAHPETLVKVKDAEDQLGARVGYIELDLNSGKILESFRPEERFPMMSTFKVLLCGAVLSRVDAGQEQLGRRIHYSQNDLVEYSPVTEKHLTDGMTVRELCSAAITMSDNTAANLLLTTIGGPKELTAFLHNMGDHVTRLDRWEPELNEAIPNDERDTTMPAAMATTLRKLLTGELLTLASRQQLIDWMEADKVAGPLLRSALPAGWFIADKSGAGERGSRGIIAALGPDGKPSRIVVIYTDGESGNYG
Sequence of Beta-lactamase (Pseudomonas aeruginosa, UniProt Q79MP6) (Q79MP6 whole entry): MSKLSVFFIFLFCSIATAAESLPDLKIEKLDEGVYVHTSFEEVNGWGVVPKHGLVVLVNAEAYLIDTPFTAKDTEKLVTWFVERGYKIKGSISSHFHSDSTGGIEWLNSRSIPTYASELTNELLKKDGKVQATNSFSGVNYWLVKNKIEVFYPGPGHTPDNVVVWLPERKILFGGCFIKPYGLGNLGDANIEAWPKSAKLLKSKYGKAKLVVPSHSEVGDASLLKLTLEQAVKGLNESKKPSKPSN
Sequence of Serine/threonine-protein kinase pim-1 (P11309 whole entry): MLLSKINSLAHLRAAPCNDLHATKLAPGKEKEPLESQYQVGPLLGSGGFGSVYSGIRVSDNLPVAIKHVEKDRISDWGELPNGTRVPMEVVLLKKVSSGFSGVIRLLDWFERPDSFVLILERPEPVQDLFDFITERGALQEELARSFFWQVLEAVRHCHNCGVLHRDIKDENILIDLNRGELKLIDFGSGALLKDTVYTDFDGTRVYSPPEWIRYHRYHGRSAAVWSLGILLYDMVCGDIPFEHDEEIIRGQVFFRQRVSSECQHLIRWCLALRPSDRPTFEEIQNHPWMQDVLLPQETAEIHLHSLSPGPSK
Sequence of Cytochrome P450 2D6 (P10635 whole entry): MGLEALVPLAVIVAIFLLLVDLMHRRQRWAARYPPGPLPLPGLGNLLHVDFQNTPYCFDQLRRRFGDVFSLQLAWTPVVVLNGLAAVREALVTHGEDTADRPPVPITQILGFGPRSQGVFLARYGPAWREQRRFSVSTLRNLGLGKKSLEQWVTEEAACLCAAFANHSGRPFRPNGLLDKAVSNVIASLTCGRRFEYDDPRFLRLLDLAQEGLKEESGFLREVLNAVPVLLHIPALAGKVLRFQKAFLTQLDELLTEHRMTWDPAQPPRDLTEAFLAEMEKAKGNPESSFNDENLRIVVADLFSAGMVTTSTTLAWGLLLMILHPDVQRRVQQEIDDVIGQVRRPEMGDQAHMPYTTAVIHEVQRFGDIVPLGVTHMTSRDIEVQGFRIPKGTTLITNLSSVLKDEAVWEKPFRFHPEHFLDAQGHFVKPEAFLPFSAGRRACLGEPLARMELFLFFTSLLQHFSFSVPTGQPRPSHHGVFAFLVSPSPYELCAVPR
Sequence of Cytochrome P450 2C9 (P11712 whole entry): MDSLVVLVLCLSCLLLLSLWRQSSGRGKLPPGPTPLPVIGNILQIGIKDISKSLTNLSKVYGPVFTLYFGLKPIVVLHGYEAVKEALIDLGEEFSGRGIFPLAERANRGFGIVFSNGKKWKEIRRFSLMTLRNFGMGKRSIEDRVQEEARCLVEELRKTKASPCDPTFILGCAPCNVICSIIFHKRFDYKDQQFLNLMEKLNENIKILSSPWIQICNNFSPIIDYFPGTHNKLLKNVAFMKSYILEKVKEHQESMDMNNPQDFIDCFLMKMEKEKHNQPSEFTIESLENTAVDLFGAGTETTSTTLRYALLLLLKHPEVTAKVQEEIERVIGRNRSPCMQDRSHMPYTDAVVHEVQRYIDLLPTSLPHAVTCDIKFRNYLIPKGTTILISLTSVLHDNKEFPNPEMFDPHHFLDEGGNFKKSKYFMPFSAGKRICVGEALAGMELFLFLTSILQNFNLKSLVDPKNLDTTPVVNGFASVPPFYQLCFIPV
Sequence of Receptor-type tyrosine-protein kinase FLT3 (P36888 whole entry): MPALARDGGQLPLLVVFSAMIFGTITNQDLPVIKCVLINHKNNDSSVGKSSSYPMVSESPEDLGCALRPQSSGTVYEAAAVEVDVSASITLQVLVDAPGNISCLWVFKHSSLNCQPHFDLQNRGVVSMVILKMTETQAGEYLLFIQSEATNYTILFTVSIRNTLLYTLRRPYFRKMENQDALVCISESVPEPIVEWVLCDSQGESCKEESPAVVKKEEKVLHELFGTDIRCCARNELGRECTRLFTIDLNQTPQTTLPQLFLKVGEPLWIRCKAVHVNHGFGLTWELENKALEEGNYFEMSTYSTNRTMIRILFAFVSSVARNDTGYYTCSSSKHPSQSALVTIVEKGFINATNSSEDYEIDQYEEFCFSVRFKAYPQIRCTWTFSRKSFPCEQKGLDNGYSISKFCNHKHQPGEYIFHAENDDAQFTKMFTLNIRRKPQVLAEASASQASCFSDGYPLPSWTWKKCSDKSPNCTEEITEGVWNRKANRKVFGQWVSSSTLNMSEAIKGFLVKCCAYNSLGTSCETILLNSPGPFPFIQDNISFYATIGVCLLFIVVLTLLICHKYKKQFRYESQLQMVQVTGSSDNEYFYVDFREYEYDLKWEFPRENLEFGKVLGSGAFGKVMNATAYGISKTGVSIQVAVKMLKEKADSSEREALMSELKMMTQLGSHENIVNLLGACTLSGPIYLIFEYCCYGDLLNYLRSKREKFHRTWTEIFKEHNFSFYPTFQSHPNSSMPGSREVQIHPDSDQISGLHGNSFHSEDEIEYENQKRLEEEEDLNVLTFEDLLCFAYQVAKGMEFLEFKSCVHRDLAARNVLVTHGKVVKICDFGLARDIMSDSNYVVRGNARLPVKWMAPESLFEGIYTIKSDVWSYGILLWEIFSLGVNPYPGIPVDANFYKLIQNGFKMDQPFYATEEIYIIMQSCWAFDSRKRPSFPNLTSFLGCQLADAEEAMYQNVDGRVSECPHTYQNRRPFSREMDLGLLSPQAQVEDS
Sequence of Aryl hydrocarbon receptor (P35869 whole entry): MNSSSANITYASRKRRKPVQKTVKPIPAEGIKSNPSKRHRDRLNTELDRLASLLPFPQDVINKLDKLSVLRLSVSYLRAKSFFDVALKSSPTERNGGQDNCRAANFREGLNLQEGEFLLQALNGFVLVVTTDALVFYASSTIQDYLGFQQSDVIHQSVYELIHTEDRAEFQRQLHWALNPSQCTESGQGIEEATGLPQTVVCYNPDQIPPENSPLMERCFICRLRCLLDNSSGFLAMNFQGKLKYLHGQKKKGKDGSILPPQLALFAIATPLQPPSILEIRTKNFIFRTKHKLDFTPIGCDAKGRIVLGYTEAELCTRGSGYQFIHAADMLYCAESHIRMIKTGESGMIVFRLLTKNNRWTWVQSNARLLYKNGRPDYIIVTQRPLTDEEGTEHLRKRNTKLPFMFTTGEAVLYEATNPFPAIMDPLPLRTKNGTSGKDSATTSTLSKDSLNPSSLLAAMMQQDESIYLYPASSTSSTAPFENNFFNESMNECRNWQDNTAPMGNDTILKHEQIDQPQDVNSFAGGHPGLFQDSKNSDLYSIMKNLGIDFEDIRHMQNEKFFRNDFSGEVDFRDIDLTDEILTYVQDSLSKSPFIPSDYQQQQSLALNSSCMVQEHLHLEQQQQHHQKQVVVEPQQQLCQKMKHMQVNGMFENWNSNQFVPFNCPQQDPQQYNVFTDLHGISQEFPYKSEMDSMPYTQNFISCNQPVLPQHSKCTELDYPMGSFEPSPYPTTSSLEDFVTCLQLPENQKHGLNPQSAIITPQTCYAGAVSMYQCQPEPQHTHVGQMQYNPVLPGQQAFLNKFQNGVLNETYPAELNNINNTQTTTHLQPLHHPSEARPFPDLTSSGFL

## O=C(O)c1coc(-c2ccc(F)cc2)n1
[1]
  EC50: > 100 µM (inactive)

## c1ccc(C2Cc3cn[nH]c3C2)cc1 (stereo not drawn)
[2]
  Ki: 79.4 µM (active)
[3]
  Ki: 15.8 µM (active)

## Cc1noc(C)c1COC(=O)c1cnc(Cl)c(Cl)c1
[4]
  IC50: 5.01 µM (active)
[5]
  IC50: 10 µM (active)

## COc1ccc(NC(=O)c2ccc(Cl)nc2)cc1S(=O)(=O)N1CCOCC1
[6]
  AC50: 2.27 µM (active)

## COc1ccccc1S(=O)(=O)N(C)C[C@@H]1Oc2c(NC(=O)Nc3cccc4ccccc34)cccc2C(=O)N([C@@H](C)CO)C[C@H]1C
INS1
  AC50: 47.2 µM (active)
[7]
  AC50: 45.1 µM (active)

## CCOc1cc(NC(=O)c2cccs2)c(OCC)cc1NC(=O)c1ccco1
Cytochrome P450 2C9
  AC50: 35.5 nM (inconclusive)
Cytochrome P450 3A4
  AC50: 178 nM (inconclusive)
Melanocortin receptor 4 [8]
  EC50: > 89.1 µM (inactive)
Cytochrome P450 2D6
  AC50: 708 nM (inconclusive)
Estrogen receptor beta
  IC50: > 50 µM (not active)

## COc1ccc(C2=[N+](C)CCn3cccc32)c(OC)c1
Protein Wnt-3a
  IC50: 7 µM (active)
Coagulation factor XII
  IC50: > 50 µM (inactive)

## CN(/N=C/c1ccc(N(C)C)cc1)C1=NS(=O)(=O)c2ccccc21
Troponin, cardiac muscle
  EC50: 4.5 µM (active)
Beta-lactamase [9]
  IC50: 23 µM (inactive)
Beta-lactamase [10]
  IC50: 13.4 µM (inactive)
BJ [11]
  EC50: 27.9 µM (active)
BJ [12]
  EC50: > 150 µM (not active)
[13]
  EC50: 84.8 µM (active)
Beta Lactamase
  IC50: 15 µM (inactive)
BJ [14]
  EC50: 47 µM (active)
[15]
  EC50: > 99 µM (inactive)
[16]
  EC50: > 99 µM (inactive)

## CCOC(=O)c1cc(C)nc(S(C)(=O)=O)c1C#N
Melanocortin receptor 4 [17]
  IC50: > 64.6 µM (inactive)
[18]
  IC50: > 64.6 µM (inactive)

## Cc1cc(N=Cc2ccc(O)c(O)c2)c2ccccc2n1
Aurora kinase A
  Ki: 25.1 nM (active)
Aurora kinase B
  Ki: 6.31 nM (active)

## COc1ccc(C(=O)C[n+]2cccc(C)c2)cc1
[4]
  IC50: 2.05 µM (active)
[5]
  IC50: 2.43 µM (active)

## CCOC(=O)CCC(=O)Nc1ccc(S(=O)(=O)N2CCc3ccccc32)cc1
Melanocortin receptor 4 [17]
  IC50: > 64.6 µM (inactive)
[18]
  IC50: > 64.6 µM (inactive)

## COc1ccc(/C=N\NC(=O)/C(=C\Nc2nccc(C)n2)NC(=O)c2ccccc2)cc1
[19]
  IC50: 149 µM (inactive)

## N#CSCSc1nc2ccccc2s1
[20]
  AC50: 50.1 µM (inconclusive)

## C[C@@H]1CN([C@@H](C)CO)C(=O)c2cccc(NC(=O)Nc3cccc4ccccc34)c2O[C@H]1CN(C)C(=O)NC1CCCCC1
INS1
  AC50: 24.6 µM (active)
[7]
  AC50: 37.8 µM (active)
[21]
  AC50: 5.39 µM (active)
